Measurements: the NIST ThermoML archive (doi:10.1016/j.jct.2015.05.019)
Numbers after ± are expanded uncertainties.

Columns and labels:
[1] = Molar enthalpy of transition or fusion; conditions: Crystal; DSC
[2] = Crystal; DTA

O=c1c(-c2ccc(O)cc2)coc2cc(O[C@@H]3O[C@H](CO)[C@@H](O)[C@H](O)[C@H]3O)cc(O)c12 [genistin]
Molar enthalpy of transition or fusion [1]: 15.7 ± 3.11 kcal/mol
Normal melting temperature [2]: 274.32 ± 0.5 °C
